We go through 27 compounds from patent US6150385A, “1,3,4-thiadiazoles useful for the treatment of CMV infections” (Pharmacia & Upjohn Company, priority 1999, dated 2000).

For this assay, the target named is T1, HCMV polymerase (Human cytomegalovirus, UniProt P08546).
T1 construct: made in house; host or cells: SF-9 insect cells infected with recombinant baculovirus
T1 sequence (P08546 whole entry): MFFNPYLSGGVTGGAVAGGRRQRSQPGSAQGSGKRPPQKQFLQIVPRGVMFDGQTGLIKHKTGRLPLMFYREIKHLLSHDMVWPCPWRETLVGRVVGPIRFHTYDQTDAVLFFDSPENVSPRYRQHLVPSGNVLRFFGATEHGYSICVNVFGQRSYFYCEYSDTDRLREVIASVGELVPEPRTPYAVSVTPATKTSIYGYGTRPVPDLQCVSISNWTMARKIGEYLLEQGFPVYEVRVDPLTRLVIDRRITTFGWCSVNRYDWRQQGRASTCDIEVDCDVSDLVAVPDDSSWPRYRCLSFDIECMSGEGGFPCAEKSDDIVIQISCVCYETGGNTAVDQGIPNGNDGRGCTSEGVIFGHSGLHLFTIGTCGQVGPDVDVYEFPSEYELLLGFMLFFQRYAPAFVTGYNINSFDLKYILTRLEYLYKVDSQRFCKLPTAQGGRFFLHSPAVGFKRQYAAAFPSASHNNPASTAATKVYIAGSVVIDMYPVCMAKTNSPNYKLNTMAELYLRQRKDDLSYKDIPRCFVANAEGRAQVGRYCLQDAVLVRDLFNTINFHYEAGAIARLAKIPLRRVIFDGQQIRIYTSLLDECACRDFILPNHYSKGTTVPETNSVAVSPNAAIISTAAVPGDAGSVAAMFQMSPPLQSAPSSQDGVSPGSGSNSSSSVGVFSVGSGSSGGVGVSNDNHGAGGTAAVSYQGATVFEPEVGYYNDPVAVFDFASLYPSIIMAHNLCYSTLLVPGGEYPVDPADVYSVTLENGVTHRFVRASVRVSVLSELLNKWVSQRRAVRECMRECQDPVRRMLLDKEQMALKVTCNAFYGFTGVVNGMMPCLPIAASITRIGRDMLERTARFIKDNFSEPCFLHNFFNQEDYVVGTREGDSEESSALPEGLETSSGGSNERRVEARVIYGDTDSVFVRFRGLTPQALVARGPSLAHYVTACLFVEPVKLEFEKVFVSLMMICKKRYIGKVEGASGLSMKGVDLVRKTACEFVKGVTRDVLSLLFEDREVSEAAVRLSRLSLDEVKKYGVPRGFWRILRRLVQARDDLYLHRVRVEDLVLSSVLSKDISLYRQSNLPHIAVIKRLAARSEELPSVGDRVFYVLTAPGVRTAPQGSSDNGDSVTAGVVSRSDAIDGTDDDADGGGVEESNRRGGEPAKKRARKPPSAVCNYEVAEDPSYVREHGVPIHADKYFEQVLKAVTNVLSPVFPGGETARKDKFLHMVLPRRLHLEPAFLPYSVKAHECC
As to the kind of experiment: HCMV polymerase assay (scintillation proximity assay). To be noted: percentage of inhibition at 25 μM concentration in CMV polymerase assay. It counts as biochemical. In outline: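 Baculovirus/SF-9-expressed HCMV polymerase in 5.4 mM HEPES pH 7.5, 11.7 mM KCl, 4.5 mM MgCl2, 0.36 mg/ml BSA, 90 nM 3H-dTTP, with or without 2 mM CHAPS. Started with 6 nM biotinylated poly(dA)-oligo(dT), 30 min at 25 or 37 °C, EDTA-stopped, read by streptavidin-SPA counting; % inhibition at 25 μM.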
In general terms: Scintillation proximity formats need no separation of bound from free tracer.
For orientation: inhibition means the drop in the measured response relative to a control, in per cent. Low readings indicate little suppression, high ones strong suppression. Turning to `CC(C)c1cc(C(C)C)c(C(=O)Nc2nnc(NCCC#N)s2)c(C(C)C)c1` [compound 435, N-{5-[(2-cyanoethyl)amino]-1,3,4-thiadiazol-2-yl}-2,4,6-triisopropylbenzamide], the inhibition at 25 µM is 22.8%. On the same count and under the same terms, the same measure for `O=C(Nc1nnc(NCCCCc2ccccc2)s1)c1ccc(I)cc1` [compound 59, 4-iodo-N-{5-[(4-phenylbutyl)amino]-1,3,4-thiadiazol-2-yl}benzamide]: 74.6%; for `N#Cc1ccc(C(=O)Nc2nnc(NCCc3c[nH]c4ccccc34)s2)cc1` [compound 82, 4-cyano-N-(5-{[2-(1H-indol-3-yl)ethyl]amino}-1,3,4-thiadiazol-2-yl)benzamide]: 67.7%. On the same count and under the same terms, then `O=C(Nc1nnc(NC2CCN(Cc3ccccc3)CC2)s1)c1ccc(I)cc1` [compound 367, N-{5-[(1-benzyl-4-piperidinyl)amino]-1,3,4-thiadiazol-2-yl}-4-iodobenzamide], with 28.6%; and `CC(C)c1cc(C(C)C)c(C(=O)Nc2nnc(NCCc3c[nH]cn3)s2)c(C(C)C)c1` [compound 317, N-(5-{[2-(1H-imidazol-4-yl)ethyl]amino}-1,3,4-thiadiazol-2-yl)-2,4,6-triisopropylbenzamide], with 33.6%; and `O=C(Nc1nnc(NCc2ccncc2)s1)c1c(Cl)cccc1Cl` [compound 84, 2,6-dichloro-N-{5-[(4-pyridinylmethyl)amino]-1,3,4-thiadiazol-2-yl}benzamide], with 67.6%. The compound `O=C(Nc1nnc(NCc2ccc3c(c2)OCO3)s1)c1ccc(F)cc1F` [compound 305, N-{5-[(1,3-benzodioxol-5-ylmethyl)amino]-1,3,4-thiadiazol-2-yl}-2,4-difluorobenzamide] displayed an inhibition at 25 µM of 34.5%. Same read-out and setting: then `O=C(Nc1nnc(NCCc2c[nH]c3ccccc23)s1)c1cc(F)cc(F)c1` [compound 458, 3,5-difluoro-N-(5-{[2-(1H-indol-3-yl)ethyl]amino}-1,3,4-thiadiazol-2-yl)benzamide], with 20.7%; and `O=C(/C=C/c1ccccc1Cl)Nc1nnc(NCCc2c[nH]cn2)s1` [compound 98, (E)-3-(2-chlorophenyl)-N-(5-{[2-(1H-imidazol-4-yl)ethyl]amino}-1,3,4-thiadiazol-2-yl)-2-propenamide], with 65.7%. `O=C(Nc1nnc(NCCc2ccccc2)s1)c1cc(F)cc(F)c1` [compound 437, 3,5-difluoro-N-[5-(phenethylamino)-1,3,4-thiadiazol-2-yl]benzamide] had an inhibition at 25 µM of 22.7%.

`O=C(Nc1nnc(NCc2cccnc2)s1)c1cc2ccccc2s1` [compound 301, N-{5-[(3-pyridinylmethyl)amino]-1,3,4-thiadiazol-2-yl}-1-benzothiophene-2-carboxamide] came in with an inhibition at 25 µM of 34.8%. Same read-out and setting: then `O=C(Nc1nnc(NCCCCc2ccccc2)s1)c1ccc([N+](=O)[O-])o1` [compound 131, 5-nitro-N-{5-[(4-phenylbutyl)amino]-1,3,4-thiadiazol-2-yl}-2-furamide], with 58%.

With `CCOc1ccc2ccccc2c1C(=O)Nc1nnc(NCC2CCCO2)s1` (stereo not drawn) [compound 450, 2-ethoxy-N-{5-[(tetrahydro-2-furanylmethyl)amino]-1,3,4-thiadiazol-2-yl}-1-naphthamide], the inhibition at 25 µM was found to be 21.4%. Still for that read-out and setting: the same measure for `Cc1ccc(C(=O)Nc2nnc(NCCNc3ccccc3)s2)cc1` [compound 393, N-{5-[(2-anilinoethyl)amino]-1,3,4-thiadiazol-2-yl}-4-methylbenzamide]: 26.1%; for `CCSCCNc1nnc(NC(=O)c2ccc(Br)cc2)s1` [compound 309, 4-bromo-N-(5-{[2-(ethylsulfanyl)ethyl]amino}-1,3,4-thiadiazol-2-yl)benzamide]: 34%; for `O=C(Nc1nnc(NCc2ccc(Cl)c(Cl)c2)s1)c1c(Cl)cccc1Cl` [compound 73, 2,6-dichloro-N-{5-[(3,4-dichlorobenzyl)amino]-1,3,4-thiadiazol-2-yl}benzamide]: 69.1%. Still for that read-out and setting: the same measure for `O=C(Nc1nnc(NCc2ccc(Cl)c(Cl)c2)s1)c1ccc2c(c1)C(=O)OC2=O` [compound 12, N-{5-[(3,4-dichlorobenzyl)amino]-1,3,4-thiadiazol-2-yl}-1,3-dioxo-1,3-dihydro-2-benzofuran-5-carboxamide]: 99.5%; for `O=C(Nc1nnc(NCc2cccc3ccccc23)s1)c1ccc(I)cc1` [compound 402, 4-iodo-N-{5-[(1-naphthylmethyl)amino]-1,3,4-thiadiazol-2-yl}benzamide]: 25.5%. For the compound `O=C(Nc1nnc(NCc2ccco2)s1)c1c(Cl)cccc1Cl` [compound 174, 2,6-dichloro-N-{5-[(2-furylmethyl)amino]-1,3,4-thiadiazol-2-yl}benzamide], the inhibition at 25 µM was 49.5%. The same measure, in the same setting: then `O=C(Nc1nnc(NCc2ccc(F)cc2)s1)c1ccc(F)cc1F` [compound 423, 2,4-difluoro-N-{5-[(4-fluorobenzyl)amino]-1,3,4-thiadiazol-2-yl}benzamide], with 23.8%; and `CCCCCCCCCCCNc1nnc(NC(=O)c2ccc(Br)cc2)s1` [compound 194, 4-bromo-N-[5-(undecylamino)-1,3,4-thiadiazol-2-yl]benzamide], with 46.8%. Still for that read-out and setting: then `COc1ccccc1C(=O)Nc1nnc(NC2CCCCCC2)s1` [compound 310, N-[5-(cycloheptylamino)-1,3,4-thiadiazol-2-yl]-2-methoxybenzamide], with 34%; and `O=C(Nc1nnc(NCCSc2ccccc2)s1)c1ccc(Br)cc1` [compound 163, 4-bromo-N-(5-{[2-(phenylsulfanyl)ethyl]amino}-1,3,4-thiadiazol-2-yl)benzamide], with 51.5%. For the compound `O=C(Nc1nnc(NCc2cccc3ccccc23)s1)c1ccc(S(=O)(=O)F)cc1` [compound 195, 4-[({5-[(1-naphthylmethyl)amino]-1,3,4-thiadiazol-2-yl}amino)carbonyl]benzenesulfonyl fluoride], the “% Inhib” value is reported as 46.7%. Turning to `N#Cc1ccc(C(=O)Nc2nnc(NCC(c3ccccc3)c3ccccc3)s2)cc1` [compound 83, 4-cyano-N-{5-[(2,2-diphenylethyl)amino]-1,3,4-thiadiazol-2-yl}benzamide], 25 µM produced 67.7% inhibition. The same measure, in the same setting: then `O=C(Nc1nnc(NCC2CCCCC2)s1)c1ccc([N+](=O)[O-])o1` [compound 380, N-{5-[(cyclohexylmethyl)amino]-1,3,4-thiadiazol-2-yl}-5-nitro-2-furamide], with 27.5%; and `O=C(Nc1nnc(NC2CCCc3ccccc32)s1)c1ccc([N+](=O)[O-])o1` (stereo not drawn) [compound 192, 5-nitro-N-[5-(1,2,3,4-tetrahydro-1-naphthalenylamino)-1,3,4-thiadiazol-2-yl]-2-furamide], with 47%.
